Reference: patent US20260285850A1, “SUBSTITUTED OXAZOLIDINONES AND IMIDAZOLINONES AS HERBICIDES” (FMC CORPORATION, priority 2023, published 2026)

Columns and labels:
Format in all cases: in vivo
[1] = system: horseweed (Erigeron canadensis); experiment: Test A postemergence application, visual injury rating 0-100; settings: 10 days
Method in brief: (§1)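 Rating: visual, day 10, untreated plants as reference, 0 no effect to 100 full control. Plants were in loam-sand and were treated either preemergence via directed soil spray or postemergence at the one- to two-leaf stage.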

[2] = system: ragweed (common ragweed, Ambrosia artemisiifolia); experiment: as above; settings: 10 days
Method in brief: as §1

[3] = system: barnyardgrass (Echinochloa crus-galli); experiment: as above; settings: 10 days
Method in brief: as §1

[4] = system: soybean (Glycine max); experiment: as above; settings: 10 days
Method in brief: as §1

[5] = system: galium (catchweed bedstraw, Galium aparine); experiment: as above; settings: 10 days
Method in brief: as §1

[6] = system: oat, wild (wild oat, Avena fatua); experiment: as above; settings: 10 days
Method in brief: as §1

[7] = system: wheat (Triticum aestivum); experiment: as above; settings: 10 days
Method in brief: as §1

[8] = system: palmer (palmer amaranth, palmer pigweed, Amaranthus palmeri); experiment: as above; settings: 10 days
Method in brief: as §1

[9] = system: ryegrass, Italian (italian ryegrass, Lolium multiflorum); experiment: as above; settings: 10 days
Method in brief: as §1

[10] = system: kochia (Bassia scoparia); experiment: as above; settings: 10 days
Method in brief: as §1

[11] = system: corn (Zea mays); experiment: as above; settings: 10 days
Method in brief: as §1

[12] = system: blackgrass (Alopecurus myosuroides); experiment: as above; settings: 10 days
Method in brief: as §1

[13] = system: ragweed (common ragweed, Ambrosia artemisiifolia); experiment: Test A preemergence soil spray, visual injury rating 0-100; settings: 10 days, 0 = no effect, 100 = complete control
Method in brief: as §1

[14] = system: barnyardgrass (Echinochloa crus-galli); experiment: as above; settings: 10 days, 0 = no effect, 100 = complete control
Method in brief: as §1

[15] = system: soybean (Glycine max); experiment: as above; settings: 10 days, 0 = no effect, 100 = complete control
Method in brief: as §1

[16] = system: oat, wild (wild oat, Avena fatua); experiment: as above; settings: 10 days, 0 = no effect, 100 = complete control
Method in brief: as §1

[17] = system: wheat (Triticum aestivum); experiment: as above; settings: 10 days, 0 = no effect, 100 = complete control
Method in brief: as §1

[18] = system: palmer (palmer amaranth, palmer pigweed, Amaranthus palmeri); experiment: as above; settings: 10 days, 0 = no effect, 100 = complete control
Method in brief: as §1

[19] = system: ryegrass, Italian (italian ryegrass, Lolium multiflorum); experiment: as above; settings: 10 days, 0 = no effect, 100 = complete control
Method in brief: as §1

[20] = system: kochia (Bassia scoparia); experiment: as above; settings: 10 days, 0 = no effect, 100 = complete control
Method in brief: as §1

[21] = system: corn (Zea mays); experiment: as above; settings: 10 days, 0 = no effect, 100 = complete control
Method in brief: as §1

[22] = system: blackgrass (Alopecurus myosuroides); experiment: as above; settings: 10 days, 0 = no effect, 100 = complete control
Method in brief: as §1

[23] = system: sedge, umbrella (small-flower umbrella sedge, Cyperus difformis); experiment: Test B flooded paddy test, visual plant response rating 0-100; settings: 250 g ai/ha, Flood, applied to paddy water, evaluated after 13 days
Method in brief: (§2)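 Greenhouse, 13 d. Seedlings at 2-leaf stage, pots flooded to 3 cm, compound delivered into floodwater, water level held constant. Evaluated visually relative to controls.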

[24] = system: barnyardgrass (Echinochloa crusgalli); experiment: as above; settings: 250 g ai/ha, Flood, applied to paddy water, evaluated after 13 days
Method in brief: as §2

[25] = system: ducksalad (Heteranthera limosa); experiment: as above; settings: 250 g ai/ha, Flood, applied to paddy water, evaluated after 13 days
Method in brief: as §2

[26] = system: rice (Oryza sativa); experiment: as above; settings: 250 g ai/ha, Flood, applied to paddy water, evaluated after 13 days
Method in brief: as §2

[27] = 31 g ai/ha, postemergence, 0 = no effect, 100 = complete control
[28] = Postemergence, 125 g ai/ha, 0 is no effect, 100 is complete control

COC(=O)C1=CCC(NC(=O)C2(C)CN(c3cc(Cl)cc(Cl)c3)C(=O)O2)C1 (stereo not drawn) [Compound 58]
Horseweed plant response rating (0-100) [1, 27]: 80 | Horseweed plant response rating (0 to 100 scale) [1, 28]: 90 | Ragweed plant response rating (0-100) [2, 27]: 30 | Ragweed plant response rating (0 to 100 scale) [2, 28]: 70 | Barnyardgrass plant response rating (0-100) [3, 27]: 90 | Barnyardgrass plant response rating (0 to 100 scale) [3, 28]: 90 | Soybean plant response rating (0-100) [4, 27]: 90 | Soybean plant response rating (0 to 100 scale) [4, 28]: 90 | Galium plant response rating (0-100) [5, 27]: 90 | Galium plant response rating (0 to 100 scale) [5, 28]: 90 | Oat, Wild plant response rating (0-100) [6, 27]: 30 | Oat, Wild plant response rating (0 to 100 scale) [6, 28]: 70 | Wheat plant response rating (0-100) [7, 27]: 60 | Wheat plant response rating (0 to 100 scale) [7, 28]: 90 | Amaranth, Palmer plant response rating (0-100) [8, 27]: 90 | Amaranth, Palmer / Pigweed, Palmer plant response rating (0 to 100 scale) [8, 28]: 100 | Ryegrass, Italian plant response rating (0-100) [9, 27]: 90 | Ryegrass, Italian plant response rating (0 to 100 scale) [9, 28]: 90 | Kochia plant response rating (0-100) [10, 27]: 80 | Kochia plant response rating (0 to 100 scale) [10, 28]: 90 | Corn plant response rating (0-100) [11, 27]: 100 | Corn plant response rating (0 to 100 scale) [11, 28]: 100 | Blackgrass plant response rating (0-100) [12, 27]: 90 | Blackgrass plant response rating (0 to 100 scale) [12, 28]: 100 | Ragweed plant response rating (0-100) ([13]; 31 g ai/ha): 0 | Ragweed plant response rating (0 to 100 scale) ([13]; 125 g ai/ha): 30 | Barnyardgrass plant response rating (0-100) ([14]; 31 g ai/ha): 80 | Barnyardgrass plant response rating (0 to 100 scale) ([14]; 125 g ai/ha): 90 | Soybean plant response rating (0-100) ([15]; 31 g ai/ha): 20 | Soybean plant response rating (0 to 100 scale) ([15]; 125 g ai/ha): 50 | Oat, Wild plant response rating (0-100) ([16]; 31 g ai/ha): 10 | Oat, Wild plant response rating (0 to 100 scale) ([16]; 125 g ai/ha): 30 | Wheat plant response rating (0-100) ([17]; 31 g ai/ha): 20 | Wheat plant response rating (0 to 100 scale) ([17]; 125 g ai/ha): 90 | Amaranth, Palmer plant response rating (0-100) ([18]; 31 g ai/ha): 80 | Amaranth, Palmer plant response rating (0 to 100 scale) ([18]; 125 g ai/ha): 100 | Ryegrass, Italian plant response rating (0-100) ([19]; 31 g ai/ha): 60 | Ryegrass, Italian plant response rating (0 to 100 scale) ([19]; 125 g ai/ha): 80 | Kochia plant response rating (0-100) ([20]; 31 g ai/ha): 10 | Kochia plant response rating (0 to 100 scale) ([20]; 125 g ai/ha): 70 | Corn plant response rating (0-100) ([21]; 31 g ai/ha): 10 | Corn plant response rating (0 to 100 scale) ([21]; 125 g ai/ha): 60 | Blackgrass plant response rating (0-100) ([22]; 31 g ai/ha): 10 | Blackgrass plant response rating (0 to 100 scale) ([22]; 125 g ai/ha): 30 | Plant response rating, Sedge, Umbrella (0 to 100 scale, 0 is no effect and 100 is complete control) [23]: 98 | Plant response rating, Barnyardgrass (0 to 100 scale, 0 is no effect and 100 is complete control) [24]: 60 | Plant response rating, Ducksalad (0 to 100 scale, 0 is no effect and 100 is complete control) [25]: 95 | Plant response rating, Rice (0 to 100 scale, 0 is no effect and 100 is complete control) [26]: 70
